# Measurements reported in a melting point compilation (Tetko et al.; mined from patent text by program, amines drawn as free bases though some values may be those of a salt).
row,Structure (SMILES),melting point
1,C=C(C)[C@@H]1CC[C@]2(C(=O)N[C@H]3C[C@@H](C(=O)N4CCCC4)C3(C)C)CC[C@]3(C)[C@H](CC[C@@H]4[C@@]5(C)CC[C@H](OC(=O)CC(C)(C)C(=O)O)C(C)(C)[C@@H]5CC[C@]43C)[C@@H]12,110 to 114 °C
2,Nc1cccc(Nc2ncnc3[nH]cc(C(=O)c4ccccc4)c23)n1,> 300 °C
3,Cc1cccc(C=CC(=O)O)c1[N+](=O)[O-],230 to 235 °C
4,O=C(O)CCc1ccc(CCNC(=O)c2ccccc2)cc1,164 to 165 °C
5,CCOC(=O)COc1cnc(S)nc1O,157 to 160 °C
6,O=C1Nc2ccc(S(=O)(=O)N3CCC[C@H]3CN3CCOCC3)cc2C1=O,163 to 164 °C
7,CCCN(C(=O)OC(C)(C)C)C1CC=C(c2c[nH]c3cc([N+](=O)[O-])ccc23)CC1 (centres undefined),214 to 216 °C
8,COC(=O)NN=C(C)c1c[nH]c(-c2ccccc2)n1,226 to 227 °C
9,COC(=O)c1cc([N+](=O)[O-])c(C)s1,81 °C
10,COC(=O)CC(S)C(CC(C)C)C(=O)NC(Cc1ccccc1)C(N)=O (centres undefined),64 to 66 °C
11,CC(C)=CCSC1=C(O)CC(C)(C)CC1=O,50.5 to 52 °C
12,COC(=O)c1nc(C)c(-c2ccccc2)nc1N,162 °C
13,O=C(O)/C=C(\c1cc(F)cc(F)c1)C(F)(F)F,129 to 130 °C
14,CCCCc1nc2c(c(C)c(C)n3nnnc23)n1CC(C)(C)NS(C)(=O)=O,75 to 90 °C
15,CC(=O)OC1CSC(Oc2cccnc2CN(C)C)C(OC(C)=O)C1OC(C)=O (centres undefined),105 °C
16,CN1C(=O)c2c(n3cncc3c3[nH]c4ncccc4c23)C1=O,304 to 307 °C
17,CCN(CC)C(=O)Cc1cc(C(C)C)c(O)cc1C,138 to 139 °C
18,CC(C)C(C(=O)NC1CCCCC1)N1CC(=O)NCC(=O)NCC(=O)NCC(=O)NCC(=O)NCC1=O (centres undefined),275 °C
19,O=c1[nH]c2ccc3c(c2[nH]c1=O)CNCC3,294 to 297 °C
20,Cc1cc(-c2cn[nH]c2N)ccn1,230 °C
21,O=C(Nc1ccc(CN2C(=O)[C@H]3CCC[C@H]3N(C(=O)CN3C(=O)c4ccccc4C3=O)c3ccccc32)cc1)OCc1ccccc1 (relative stereo),144 to 147 °C
22,C=C(c1ccccc1OCCCCl)c1cccc2[nH]ccc12,70 to 72 °C
23,CN(C)C=CC=C(C#N)c1cccnc1,117 to 120 °C
24,CNC1N=CN(c2c(C)cccc2Cl)C(=O)N1 (centres undefined),254 to 256 °C
25,CCCNC(=O)CCCCCn1cnc2c(N)nc3ccccc3c21,128 to 130 °C

row,Structure (SMILES),melting point
1,CN(C)C(=O)Oc1ccc(Cl)c2c1C(=O)c1ccccc1C2=O,182 to 184 °C
2,CCOC(=O)C1=C(C)Nc2nc(N3CCOCC3)nc(N3CCOCC3)c2C1c1ccccc1Cl (centres undefined),241 °C
3,O=C(c1ccc(Cl)cc1)[C@H]1C[C@H]1C(=O)O (relative stereo),150 to 153 °C
4,O=Cc1cccc2c1[nH]c1c3cc(Br)ccc3oc21,280 to 281 °C
5,CSc1ccc(C(=O)O)c([N+](=O)[O-])c1,165 to 168 °C
6,CCc1nc(C)cn1S(=O)(=O)c1c[nH]cn1,147 to 148 °C
7,C=Cc1ccc(CSCCNC(=O)COCC(=O)O)cc1,44.5 to 46 °C
8,CC(C)(C)C1=C(c2cc(O)c3nc(-c4ccccc4)oc3c2)OCC1(C)C,160 to 161 °C
9,NCCc1ccc(OCc2ccccc2)cc1,58.7 to 59.6 °C
10,N=C(Nc1ccccc1-c1ccccc1)C1CCCCC1,148 to 150 °C
11,NC(=O)c1c(-c2ccccc2)csc1O,108 to 110 °C
12,CCOC(=O)C1(I)C=CC(c2ccccc2)=CC1 (centres undefined),105 to 106 °C
13,CCCN1CC=C(c2cccc3[nH]ccc23)CC1,105 °C
14,CCCCc1ccc(NC(=O)CCC)c(N=C(NC(=O)OC)SC)c1,116 °C
15,Cc1onc(-c2ccccc2)c1-c1[nH]c2ccccc2c1CCC(=O)O,170 to 172 °C
16,CCS(=O)(=O)CCNc1c(S(C)=O)c(C#N)nn1-c1c(Cl)cc(C(F)(F)F)cc1Cl (centres undefined),131 to 132 °C
17,CCn1ncc2c1ncc1c(NCCCN(C)C)nc3cc(C)nn3c12,178 to 179 °C
18,CCCCCCCc1cn2cc(-c3ccc(O)cc3)nc2s1,122 °C
19,COc1cc(SCCCc2ccc(-c3ccc(CCCSc4ccc(OCC(=O)O)c(OC)c4)cc3)cc2)ccc1OCC(=O)O,178 to 180 °C
20,Cc1cccc(C=NN2C(=O)CN(C(c3ccccc3)c3ccccc3)CC2=O)n1,161 to 163 °C
21,CC(=O)N1CC(C)(C)c2cc3nc[nH]c3cc21,214 to 216 °C
22,c1ccc2c(c1)nc(NCCN1CCNCC1)c1c3ccccc3[nH]c21,210 to 211 °C
23,CCOC(=O)C[C@H](NC(=O)/C=C/Sc1ccccc1)C(=O)OCC,100 to 102 °C
24,CCOC(=O)C(=CNc1ncnc2ccc(NC(=O)C(CC)CC)cc12)C(=O)OCC,191 to 194 °C

# Other lines, results leading:
row,melting point,Structure (SMILES)
1,211 to 212 °C,O=C(O)Cn1c(=O)c2cc(Cl)ccc2n(Cc2ccc(F)cc2)c1=O
2,216 to 218 °C,Nc1ccc2c(c1)C(=O)N(C1CCN(Cc3ccccc3)CC1)C2=O
3,116 to 117 °C,COc1ccccc1-c1nc(-c2ccccc2)c2ncc(Cl)cc2n1
4,108 to 109 °C,CCCOc1nn(Cc2ccc(OCc3nc(-c4ccccc4)oc3C)cc2)cc1CCC(=O)O
5,123 to 124 °C,CC(C)Cc1ccc(-c2ncccc2S(=O)(=O)Oc2ccc([N+](=O)[O-])cc2)cc1
6,234 to 236 °C,Nc1nc(Cl)cc(Oc2ccc3c(C(=O)Nc4cccc(C(F)(F)F)c4)cccc3c2)n1
7,85 to 86 °C,CC1CCN(C(=O)Oc2ccccc2-c2ccccc2)CC1
8,100 to 104 °C,O=C(O)CCC(Oc1cccc(OCc2ccccc2)c1)c1ccccc1 (racemic)
9,127 to 128 °C,CCCCC(CC)C(=O)Nc1ccc(-n2nc(C(F)(F)F)cc2C(F)(F)F)cc1 (centres undefined)
10,114 to 116 °C,c1ccc(Oc2ccc(NC3=NN(c4ccccc4)CC3)cc2)cc1
11,164 to 166 °C,COc1ccc(OC)c2c1COC(C(=O)O)C2 (centres undefined)
12,143 to 144 °C,O=C(N1CCN(c2ccncc2Cl)CC1)N1CCN(S(=O)(=O)c2ccc(F)cc2)CC1
13,103 to 104 °C,Cn1c(C(F)(F)F)ccc(-c2ccc(Cl)cc2F)c1=O
14,140 to 142 °C,COc1ccc2sc(C(=O)O)nc2c1[N+](=O)[O-]
15,147 to 161 °C,Cc1cccc(-c2nc(C(C)C)[nH]c2-c2ccc(F)c(-c3ccc(CC4CNCCO4)cc3)c2)n1 (centres undefined)
16,87 to 90 °C,CCCc1c(COc2ccc(Cc3nnn(CC(=O)O)n3)cc2)ccc(C(C)=O)c1O
17,241 to 243 °C,CCc1c(-c2ccncc2)[nH]c(-c2ccncc2)c1C(C)=O
18,236 °C,CC(C)n1cc(-c2nc(C(N)=O)c(N)nc2-c2ccc(F)cc2)ccc1=O
19,105 to 107 °C,CCCc1nn(-c2ccc(C(F)(F)F)cn2)cc1CCCCOc1ccc(CCC(=O)O)c(C)c1
20,258 to 260 °C,Nc1ccccc1CCCC(C(=O)O)N1C(=O)c2ccccc2C1=O (centres undefined)
21,84 to 86 °C,COc1ccccc1N(C)[C@@H](C)[C@H](O)c1ccccc1
22,148 to 150 °C,Cc1ccc(C)n1-c1cccc(C(=O)O)c1
23,103 to 105 °C,Cc1ccc([N+](=O)[O-])cc1Nc1ccc(C(F)(F)F)cn1
24,159 to 161 °C,COc1cccc(Cc2ccccc2)c1C(=O)O
25,102 °C,Cc1cc(OCc2coc(C=Cc3ccc(SC(F)(F)F)cc3)n2)ccc1COCCn1ccnn1

row,melting point,Structure (SMILES)
1,179 to 181 °C,CSc1ccc([N+](=O)[O-])c(C(=O)NCC2CCN(C(c3ccccc3)c3ccccc3)CC2)c1
2,66.5 to 67.5 °C,CC(Oc1ccc(Oc2ccc(C(F)(F)F)cc2Cl)cc1)C(=O)N1CCCO1 (centres undefined)
3,168 to 170 °C,Cn1c(=O)c(Oc2ccc(F)cc2F)cc2cnc(Cl)cc21
4,95 to 97 °C,CCCCOC(=O)c1cc(=O)c2c3c(cc(Cl)c2o1)-c1ccc(S(=O)(=O)O)cc1CO3
5,69 to 71 °C,Fc1ccc(-c2ncnc(C(F)F)c2Cl)c(F)c1
6,141 to 142 °C,COC(=O)c1ccc(-c2nc(-c3c(F)c(F)c(F)c(F)c3F)cs2)cc1
7,135 to 137 °C,Brc1ccc2cc(OCc3ccc4ccccc4n3)ccc2c1
8,206 to 211 °C,COc1cc2c(cc1C(F)(F)F)N(C(=O)Nc1ccc3c(ccn3-c3ccncc3)c1)CC2
9,125 °C,CNC1(c2ccccc2)CCN(C(c2ccccc2)(c2ccccc2)c2ccccc2)CC1
10,95 to 100 °C,O=C(NCC1(O)CCCCCC1)c1cc(-c2cccnc2C(=O)O)ccc1Cl
11,79 to 80 °C,CS(=O)(=O)Oc1cc(N)c(F)cc1Cl
12,> 270 °C,Nc1ccc2oc3ccc(OC(F)F)c(C(=O)Nc4c(Cl)cncc4Cl)c3c2c1
13,217 to 219 °C,CCOC(=O)c1nc(N)sc1-c1nc2ccc(Cl)cn2c1C
14,71 to 72 °C,CSc1ccc(C(=O)Cc2ccccc2)cc1F
15,153 to 156 °C,CN1CCC(c2c[nH]c3ccc(NC(=O)c4ccc5ccccc5c4)cc23)CC1
16,165 to 166 °C,COC(=O)N1CCC(c2ccc(N3C[C@H](CNC(C)=O)OC3=O)cc2F)CC1
17,237 to 241 °C,CNC(=O)N[C@H]1CC[C@H](CCN2CCN(c3ccc(OC)c(Cl)c3Cl)CC2)CC1
18,222 °C,CCOc1ncc(C(=O)O)c2ccccc12
19,128 to 131 °C,CCN(CC)c1ccc(NC(=O)c2ccc(C)c(Nc3nccc(-c4cccnc4)n3)c2)cc1C(F)(F)F
20,97 to 98 °C,COC(=O)CCCc1cc2cc(Cl)ccc2n1S(=O)(=O)c1ccc(OC)cc1
21,114 to 117 °C,CC(C)(Oc1ccccc1)C(=O)N[C@H]1CC[C@H](c2ccc(O)cc2)CC1
22,141 to 143 °C,FC(F)(F)c1ccc(C=Cc2nc[nH]n2)cc1
23,130 to 131 °C,Cn1c(C(O)(C(F)(F)F)C(F)(F)F)cc(-c2ccc(F)cc2)c1-c1ccc(F)cc1
24,100 °C,CCOC(=O)c1sc(-c2ccc(Cl)cc2Cl)nc1C
25,158 to 160 °C,CCCOc1ccc(-c2ccc(OCC(CN3C(=O)NC(C)(C)C3=O)N(O)C=O)cc2)cc1 (centres undefined)
